Measured values published in US10350271B2, “Lipidated peptides for lowering blood glucose” (USTAV ORGANICKE CHEMIE A BIOCHEMIE AKADEMIE VED CR, V.V.I., priority 2014, dated 2019).
Numbered stars: 1 amine (or outer) side, 2 acyl side, 3 side chain; on linkers, the order of the positions; unused ones are H or OH. Square brackets hold non-standard residues; d marks the D form. Side chains are listed from the residue outwards. Peptide text beside a SMILES is read from it. * marks the point of attachment. TTDA(Palmitoyl) = CCCCCCCCCCCCCCCC(=O)NCCCOCCOCCOCCCN*; γGlu = O=C(O)[C@H](CCC(=O)[*:2])N[*:1]; Palmitoyl = CCCCCCCCCCCCCCCC(=O)*; Suc = O=C(CCC(=O)[*:2])[*:1]; Lauroyl = CCCCCCCCCCCC(=O)*; Decanoyl = CCCCCCCCCC(=O)*; Octanoyl = CCCCCCCC(=O)*

Key:
rat PrRP receptor = molecular target: T1, rat PrRP receptor (Rattus norvegicus, UniProt Q64121); test: Competitive binding in RC-4B/C rat pituitary cells (125I-rat PrRP31); conditions: for % of PrRP31, RC-4B/C rat pituitary cells: affinity relative to PrRP31; for Ki: displacement of 125I-rat PrRP31, read-out: Ki, RC-4B/C rat pituitary cells ^25I-rat PrRP31; for Displacement of rat 125I-PrRP binding: rat PrRP receptor
T1 construct: host or cells: RC-4B/C rat pituitary cell line
T1 sequence (Q64121 1-370): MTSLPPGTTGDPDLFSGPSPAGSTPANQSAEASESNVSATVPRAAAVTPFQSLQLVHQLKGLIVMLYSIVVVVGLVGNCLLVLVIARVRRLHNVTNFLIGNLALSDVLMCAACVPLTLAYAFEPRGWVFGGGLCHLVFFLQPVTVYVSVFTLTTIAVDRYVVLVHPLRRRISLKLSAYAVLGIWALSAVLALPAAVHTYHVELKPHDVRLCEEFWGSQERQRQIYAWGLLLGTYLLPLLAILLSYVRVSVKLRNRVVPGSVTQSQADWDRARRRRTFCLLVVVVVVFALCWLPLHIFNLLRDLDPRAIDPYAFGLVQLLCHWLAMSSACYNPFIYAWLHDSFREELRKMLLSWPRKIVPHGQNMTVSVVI
In short: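 Displacement of rat 125I-PrRP31 ([…]) by test analogs, 10^−11–10^−4 mol·l^−1, on whole RC-4B/C cells, 60 min RT. Bound counts measured by γ-counter in duplicate, ≥3 repeats, analyzed by nonlinear one-site binding regression.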

[1] = molecular target: T2, human PrRP receptor GPR10 (Homo sapiens, UniProt P49683); test: Competitive binding in CHO cells transfected with human GPR10 (human 125I-PrRP31); conditions: for % of PrRP31, GPR10 human receptor transfected in CHO cells: affinity relative to PrRP31; for Ki: CHO cells, human 125I-PrRP31, read-out: Ki, GPR10 human receptor transfected in CHO cells; for Displacement of human 125I-PrRP binding: human GPR10 receptor
T2 construct: host or cells: CHO cells
T2 sequence (P49683 1-370): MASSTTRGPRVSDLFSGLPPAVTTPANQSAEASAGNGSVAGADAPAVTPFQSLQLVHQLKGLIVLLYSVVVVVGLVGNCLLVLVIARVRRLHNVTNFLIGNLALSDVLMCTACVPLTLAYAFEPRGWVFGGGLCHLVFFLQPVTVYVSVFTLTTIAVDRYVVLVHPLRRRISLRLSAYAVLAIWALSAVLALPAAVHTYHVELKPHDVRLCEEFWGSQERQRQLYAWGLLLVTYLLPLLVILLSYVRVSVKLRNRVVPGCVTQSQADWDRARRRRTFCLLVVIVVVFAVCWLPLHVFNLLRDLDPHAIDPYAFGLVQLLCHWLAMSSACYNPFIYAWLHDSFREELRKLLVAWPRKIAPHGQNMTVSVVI
In short: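 Values from one-site nonlinear regression of displacement curves: analogs (final 10^-11 to 10^-4 mol·l^-1) competed with 125I-PrRP31 (final 5×10^-11 mol·l^-1) on adherent human GPR10 CHO cells. Binding ran 1 h at room temperature, pH 7.4 buffer with NaCl, MgCl2, CaCl2, glucose, BSA; cell-bound radioactivity counted after NaOH lysis.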

C57BL/6 mice = test: Food intake in fasted mice after SC injection; format: in vivo; conditions: for Food intake in mice % of saline-treated group: 5 mg/kg SC, 45 min after injection
In short: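 Saline, PrRP or a lipidated analog was injected SC (1-10 mg/kg) after a 17 h fast with free water, animals housed singly.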

Row | SMILES | Binding affinity (rat PrRP receptor; RC-4B/C cells, statements referring to Table 2) | % of PrRP31, RC-4B/C rat pituitary cells (rat PrRP receptor) [%] | % of PrRP31, GPR10 human receptor transfected in CHO cells [1] [%] | Effect on food intake in mice (C57BL/6 mice; SC) | Ki (rat PrRP receptor; RC-4B/C cells) [nM] | Displacement of rat 125I-PrRP binding (rat PrRP receptor; RC-4B/C cells) | Ki [1] [nM] | Displacement of human 125I-PrRP binding [1] | Food intake in mice % of saline-treated group (C57BL/6 mice) [%]
1 | CC[C@H](C)[C@H](NC(=O)[C@H](CCCNC(=N)N)NC(=O)[C@@H]1CCCN1C(=O)[C@@H](NC(=O)CNC(=O)[C@@H](CCCNC(=N)N)NC(=O)[C@H](N)Cc1ccccc1)C(C)C)C(=O)NCC(=O)N[C@@H](CCCNC(=N)N)C(=O)NCC(=O)N[C@H](C(=O)N[C@@H](Cc1ccc(O)cc1)C(=O)N[C@@H](Cc1c[nH]c2ccccc12)C(=O)N[C@@H](C)C(=O)N1CCC[C@H]1C(=O)N[C@@H](CC(N)=O)C(=O)N[C@H](C(=O)N[C@@H](CC(=O)O)C(=O)N1CCC[C@H]1C(=O)N[C@H](C(N)=O)[C@@H](C)O)[C@@H](C)CC)[C@@H](C)O [Analog 25] (H-[dF][dR]GVPRIGRGTYWAPNIDPT-NH2) | very low binding affinity | 0.09 | 0.06 | no effect | – | – | – | – | –
2 | CCCCCCCC(=O)N[C@H](C(=O)N1CCC[C@H]1C(=O)N[C@@H](CC(=O)O)C(=O)N[C@H](C(=O)N[C@@H](CC(N)=O)C(=O)N1CCC[C@H]1C(=O)N[C@@H](C)C(=O)N[C@@H](Cc1c[nH]c2ccccc12)C(=O)N[C@@H](Cc1ccc(O)cc1)C(=O)N[C@@H](C)C(=O)N[C@@H](CO)C(=O)N[C@@H](CCCNC(=N)N)C(=O)NCC(=O)N[C@H](C(=O)N[C@@H](CCCNC(=N)N)C(=O)N1CCC[C@H]1C(=O)N[C@H](C(=O)NCC(=O)N[C@@H](CCCNC(=N)N)C(=O)N[C@@H](Cc1ccccc1)C(N)=O)C(C)C)[C@@H](C)CC)[C@@H](C)CC)[C@@H](C)O [Analog 39] (Octanoyl-TPDINPAWYASRGIRPVGRF-NH2) | – | 530 | 201 | – | 0.93 ± 0.23 | nmol·l^−1 range | 1.94 ± 0.32 | nmol·l^−1 range | 100
3 | CCCCCCCCCC(=O)N[C@H](C(=O)N1CCC[C@H]1C(=O)N[C@@H](CC(=O)O)C(=O)N[C@H](C(=O)N[C@@H](CC(N)=O)C(=O)N1CCC[C@H]1C(=O)N[C@@H](C)C(=O)N[C@@H](Cc1c[nH]c2ccccc12)C(=O)N[C@@H](Cc1ccc(O)cc1)C(=O)N[C@@H](C)C(=O)N[C@@H](CO)C(=O)N[C@@H](CCCNC(=N)N)C(=O)NCC(=O)N[C@H](C(=O)N[C@@H](CCCNC(=N)N)C(=O)N1CCC[C@H]1C(=O)N[C@H](C(=O)NCC(=O)N[C@@H](CCCNC(=N)N)C(=O)N[C@@H](Cc1ccccc1)C(N)=O)C(C)C)[C@@H](C)CC)[C@@H](C)CC)[C@@H](C)O [Analog 40] (Decanoyl-TPDINPAWYASRGIRPVGRF-NH2) | – | 1202 | 129 | – | 0.41 ± 0.01 | nmol·l^−1 range | 3.02 ± 0.49 | nmol·l^−1 range | 100
4 | CCCCCCCCCCCC(=O)N[C@H](C(=O)N1CCC[C@H]1C(=O)N[C@@H](CC(=O)O)C(=O)N[C@H](C(=O)N[C@@H](CC(N)=O)C(=O)N1CCC[C@H]1C(=O)N[C@@H](C)C(=O)N[C@@H](Cc1c[nH]c2ccccc12)C(=O)N[C@@H](Cc1ccc(O)cc1)C(=O)N[C@@H](C)C(=O)N[C@@H](CO)C(=O)N[C@@H](CCCNC(=N)N)C(=O)NCC(=O)N[C@H](C(=O)N[C@@H](CCCNC(=N)N)C(=O)N1CCC[C@H]1C(=O)N[C@H](C(=O)NCC(=O)N[C@@H](CCCNC(=N)N)C(=O)N[C@@H](Cc1ccccc1)C(N)=O)C(C)C)[C@@H](C)CC)[C@@H](C)CC)[C@@H](C)O [Analog 41] (Lauroyl-TPDINPAWYASRGIRPVGRF-NH2) | – | 822 | 161 | – | 0.6 ± 0.22 | nmol·l^−1 range | – | nmol·l^−1 range | 85
5 | CCCCCCCCCCCCCC(=O)N[C@@H](CO)C(=O)N[C@@H](CCCNC(=N)N)C(=O)N[C@H](C(=O)N[C@@H](Cc1c[nH]cn1)C(=O)N[C@@H](CCCNC(=N)N)C(=O)N[C@@H](Cc1c[nH]cn1)C(=O)N[C@@H](CO)C(=O)N[C@@H](CCSC)C(=O)N[C@@H](CCC(=O)O)C(=O)N[C@H](C(=O)N[C@@H](CCCNC(=N)N)C(=O)N[C@H](C(=O)N1CCC[C@H]1C(=O)N[C@@H](CC(=O)O)C(=O)N[C@H](C(=O)N[C@@H](CC(N)=O)C(=O)N1CCC[C@H]1C(=O)N[C@@H](C)C(=O)N[C@@H](Cc1c[nH]c2ccccc12)C(=O)N[C@@H](Cc1ccc(O)cc1)C(=O)N[C@@H](C)C(=O)N[C@@H](CO)C(=O)N[C@@H](CCCNC(=N)N)C(=O)NCC(=O)N[C@H](C(=O)N[C@@H](CCCNC(=N)N)C(=O)N1CCC[C@H]1C(=O)N[C@H](C(=O)NCC(=O)N[C@@H](CCCNC(=N)N)C(=O)N[C@@H](Cc1ccccc1)C(N)=O)C(C)C)[C@@H](C)CC)[C@@H](C)CC)[C@@H](C)O)[C@@H](C)CC)[C@@H](C)O [Analog 42] | – | 1027 | 83 | – | 0.48 ± 0.18 | – | – | – | 10
6 | CCCCCCCCCCCCCCCC(=O)N[C@@H](CCC(=O)NCCCC[C@H](NC(=O)[C@@H](NC(=O)[C@H](CCC(=O)O)NC(=O)[C@H](CCSC)NC(=O)[C@H](CO)NC(=O)[C@H](Cc1c[nH]cn1)NC(=O)[C@H](CCC(=O)O)NC(=O)[C@H](Cc1c[nH]cn1)NC(=O)[C@@H](NC(=O)[C@H](CCC(=O)O)NC(=O)[C@@H](N)CO)[C@@H](C)O)[C@@H](C)CC)C(=O)N[C@H](C(=O)N1CCC[C@H]1C(=O)N[C@@H](CC(=O)O)C(=O)N[C@H](C(=O)N[C@@H](CC(N)=O)C(=O)N1CCC[C@H]1C(=O)N[C@@H](C)C(=O)N[C@@H](Cc1c[nH]c2ccccc12)C(=O)N[C@@H](Cc1ccc(O)cc1)C(=O)N[C@@H](C)C(=O)N[C@@H](CO)C(=O)N[C@@H](CCCNC(=N)N)C(=O)NCC(=O)N[C@H](C(=O)N[C@@H](CCCNC(=N)N)C(=O)N1CCC[C@H]1C(=O)N[C@H](C(=O)NCC(=O)N[C@@H](CCCNC(=N)N)C(=O)N[C@@H](Cc1ccccc1)C(N)=O)C(C)C)[C@@H](C)CC)[C@@H](C)CC)[C@@H](C)O)C(=O)O [Analog 56] (H-SETHEHSMEIK([γGlu-Palmitoyl])TPDINPAWYASRGIRPVGRF-NH2) | – | 57 | 57 | – | 4.23 ± 2.11 | – | 5.66 ± 0.39 | – | 10
7 | CCCCCCCCCCCCCCCC(=O)NCCCOCCOCCOCCCNC(=O)CCC(=O)NCCCC[C@H](NC(=O)[C@@H](NC(=O)[C@H](CCC(=O)O)NC(=O)[C@H](CCSC)NC(=O)[C@H](CO)NC(=O)[C@H](Cc1c[nH]cn1)NC(=O)[C@H](CCCNC(=N)N)NC(=O)[C@H](Cc1c[nH]cn1)NC(=O)[C@@H](NC(=O)[C@H](CCC(=O)O)NC(=O)[C@@H](N)CO)[C@@H](C)O)[C@@H](C)CC)C(=O)N[C@H](C(=O)N1CCC[C@H]1C(=O)N[C@@H](CC(=O)O)C(=O)N[C@H](C(=O)N[C@@H](CC(N)=O)C(=O)N1CCC[C@H]1C(=O)N[C@@H](C)C(=O)N[C@@H](Cc1c[nH]c2ccccc12)C(=O)N[C@@H](Cc1ccc(O)cc1)C(=O)N[C@@H](C)C(=O)N[C@@H](CO)C(=O)N[C@@H](CCCNC(=N)N)C(=O)NCC(=O)N[C@H](C(=O)N[C@@H](CCCNC(=N)N)C(=O)N1CCC[C@H]1C(=O)N[C@H](C(=O)NCC(=O)N[C@@H](CCCNC(=N)N)C(=O)N[C@@H](Cc1ccccc1)C(N)=O)C(C)C)[C@@H](C)CC)[C@@H](C)CC)[C@@H](C)O [Analog 58] (H-SETHRHSMEIK([Suc-TTDA(Palmitoyl)])TPDINPAWYASRGIRPVGRF-NH2; N-terminus assumed) | – | 575 | 103 | – | – | – | – | – | 7
